The text below walks through data of the OPERA property sets (Mansouri et al. 2018).

Details in one data set: not given
As for `CC1CCCC1=O` (configuration not stated), the boiling point was 140 °C and the melting point is -75 °C.
As for `CC(C)CC(=O)O`, the boiling point is 176 °C, the log10 Henry constant (atm·m³/mol) was -6.08, the log10 vapour pressure (mmHg) is -0.356 and the melting point is -29.3 °C. The ready biodegradability result is reported as “readily biodegradable”.
Compound `N[C@H](CCS)C(=O)O` (racemic) returned a melting point of 226 °C.
`CC1CC(O)CC(C)(C)C1` (configuration not stated) returned a boiling point of 196 °C and a melting point of 46.5 °C.
Take `CCCCC(CC)COC(=O)CCC` (configuration not stated): the ready biodegradability entry is listed as “readily biodegradable”.
Take `O=[N+]([O-])c1ccc(C(F)(F)F)cc1`: the melting point came to 39 °C.
`CCOC(=O)[C@H](C)Cl` registered a boiling point of 147 °C and a log10 vapour pressure (mmHg) of 0.557.
In the case of `Pc1ccccc1`, the boiling point worked out at 160 °C.
Compound `CC1=C2[C@H]3OC(=O)[C@@H](C)[C@@H]3CC[C@@]2(C)C=CC1=O` had a melting point of 175 °C.
Take `CNC(=S)NCc1ccccc1`: the melting point was 75 °C.
For `c1ccc2c(c1)ccc1c3ccc4ccccc4c3[nH]c21`, the log10 Koc (L/kg) worked out at 6.02.
`O=C1c2ccc(O)c(O)c2C(=O)c2ccc(O)c(O)c21` showed a melting point of 340 °C.
`COc1ccccc1Oc1ccccc1` had a boiling point of 288 °C and a melting point of 79 °C.
`CCC(=O)CC(C)CC` (configuration not stated): the boiling point came to 159 °C and the ready biodegradability entry was “readily biodegradable”.
The compound `COc1cc(C(=O)N2CCOCC2)cc(OC)c1OC` yielded a melting point of 121 °C.
As for `CC(C)S[C@@H]1O[C@H](CO)[C@H](O)[C@H](O)[C@H]1O`, the melting point stood at 121 °C.
As to `Cc1ccc(C(=O)Cl)cc1`, the boiling point came out at 226 °C and the melting point is -3 °C.
`CC(C)(C)[N+](=O)[O-]` displayed a boiling point of 127 °C, a log10 vapour pressure (mmHg) of 1.08 and a melting point of 26.2 °C.
Turning to `CC(=O)OCCOC(C)=O`, the boiling point was 190 °C, the log10 vapour pressure (mmHg) is -1.11, the melting point is -31 °C and the ready biodegradability entry is reported as “readily biodegradable”.
Compound `CCCCCCCCC(C)C` showed a boiling point of 189 °C, a log10 vapour pressure (mmHg) of -0.22 and a melting point of -48.9 °C.
Take `CC(=O)OC1CCCCC1`: the boiling point amounted to 173 °C, the log10 vapour pressure (mmHg) was found to be 1.03 and the melting point was -65 °C.
`c1ccc(-c2nc(-c3ccccc3)c(-c3ccccc3)[nH]2)cc1`: the melting point stood at 275 °C.
In turn, `CN1CCc2cc3c(cc2C1)OCO3` came in with a boiling point of 304 °C and a melting point of 66 °C.
For `CC(=O)OCC(=O)[C@@]12N=C(C)O[C@@H]1C[C@H]1[C@@H]3CCC4=CC(=O)C=C[C@]4(C)[C@H]3[C@@H](O)C[C@@]12C`, the melting point was found to be 256 °C.
In turn, `Nc1ccc(C(=O)O)cc1O` yielded a melting point of 213 °C.
Compound `CCCCN(CC)C(=O)SCCC` had a boiling point of 202 °C, a log10 Koc (L/kg) of 2.8, a log10 vapour pressure (mmHg) of -1.05 and a melting point of -22 °C. The ready biodegradability entry is listed as “readily biodegradable”.
As to `C=CCC1(CC=C)C(=O)NC(=O)NC1=O`, the melting point stood at 172 °C.
In turn, `CCCCCCCCCCCCCCCCCCCCCCCCCCC` returned a boiling point of 442 °C, a log10 biodegradation half-life (days) of 2.15, a log10 vapour pressure (mmHg) of -6.55 and a melting point of 59.5 °C.
As for `C[C@]1(O)CC[C@H]2[C@@H]3CCC4=CC(=O)CC[C@]4(C)[C@@]3(F)[C@@H](O)C[C@@]21C`, the melting point turned out to be 270 °C.
The compound `CCCC(=O)N(CC)CC` gave a boiling point of 206 °C.
Take `CC(Br)C(C)(Br)Br` (configuration not stated): the boiling point was found to be 206 °C and the melting point was 1.8 °C.
The compound `CNCCCC12CCC(c3ccccc31)c1ccccc12` showed a melting point of 93 °C.
Take `Cc1cc(OC(=O)N(C)C)nn1C(=O)N(C)C`: the log10 vapour pressure (mmHg) is -4.01 and the melting point amounted to 69.5 °C.
As to `O=C1CCCO1`, the boiling point came out at 204 °C, the log10 vapour pressure (mmHg) is -0.347, the melting point was -43.3 °C and the ready biodegradability entry was “readily biodegradable”.
For the compound `CCN(CC)CC(O)CN` (configuration not stated), the boiling point was 223 °C.
For `CNCCO`, the boiling point was 158 °C, the log10 vapour pressure (mmHg) turned out to be 0.0346, the melting point is -4.5 °C and the ready biodegradability result is “readily biodegradable”.
In turn, `FC(F)(F)C(F)(F)Cl` showed a boiling point of -37.9 °C, a log10 vapour pressure (mmHg) of 3.84 and a melting point of -99.4 °C.
`CCc1cccc2ccccc12` had a boiling point of 259 °C, a log10 Henry constant (atm·m³/mol) of -3.16, a log10 Koc (L/kg) of 3.78 and a log10 vapour pressure (mmHg) of -1.6. Also, the melting point is -13.9 °C.
As to `c1ccc2c(c1)c1cccc3ccc4cccc2c4c31`, the log10 biodegradation half-life (days) is 2.56, the log10 vapour pressure (mmHg) is -8.24 and the melting point worked out at 178 °C.
As for `CCCCCCCC(=O)CCC`, the melting point was 4.5 °C.
Same read-out and setting: as for `Oc1c(Cl)ccc(Cl)c1Cl`, the figure is 58 °C.
In turn, `CN(C)c1ccc(N=Nc2ccccc2)cc1` came in with a log10 Koc (L/kg) of 3.87, a log10 vapour pressure (mmHg) of -7.15 and a melting point of 117 °C.
Regarding `FC(Br)Br`, the boiling point amounted to 64.9 °C and the melting point is -78 °C.
Regarding `CC(C)CNC(=O)N1CCNC1=O`, the melting point came to 95.5 °C.
The compound `O=C(O)C(Cc1ccccc1)C(=O)O` yielded a melting point of 121 °C.
In turn, `CCCCCCCBr` returned a boiling point of 179 °C, a log10 vapour pressure (mmHg) of 0.105 and a melting point of -58 °C.
For the compound `Clc1cc(Cl)c(Cl)c(Cl)c1`, the log10 Henry constant (atm·m³/mol) was -2.8, the log10 Koa amounted to 5.55, the log10 Koc (L/kg) is 3.2 and the log10 vapour pressure (mmHg) is -1.26. For the same compound, the melting point was determined as 54.5 °C.

Still in this data set, the particulars now being: fish.
`Sc1nc2ccccc2[nH]1` showed a log10 BCF of 0.41.
`C1=Cc2cccc3cccc1c23` came in with a log10 BCF of 2.43 and a log10 biotransformation half-life (days) of 0.52.
For `Oc1c(Cl)cc(Cl)c2ccccc12`, the log10 BCF came to 1.35.
Turning to `Clc1ccc(-c2cccc(Cl)c2Cl)cc1Cl`, the log10 biotransformation half-life (days) came to 2.47.
With `Oc1cc(Cl)c(Cl)cc1Cl`, the log10 BCF was determined as 2.73.
As to `CCCCCCCCC(C)C`, the log10 biotransformation half-life (days) turned out to be 0.1.
`Clc1cc(Cl)c(Cl)c(Cl)c1` yielded a log10 BCF of 3.59.
